Tests used:
Assay type in all cases: cell-based
hA2b = hA2b (Homo sapiens (Human), UniProt P29275); assay: cAMP inhibition assay in hA2b/CHO cells; details: adenosine stimulation, read-out: cAMP & FLIPR IC50 (nM) hA2b
Experimental: (§1) hA2a/CHO, hA2b/CHO and mA2a/CHO (Genscript) were plated at 5×10^3 cells/well into 384-well polystyrene plates at the day of experiment. Compounds were pre-incubated with cells for 30 min at 37° C., 5% CO2. Then […] adenosine was added to the cells and incubated for 30 min at 37° C., 5% CO2. Detection reagent (CISBIO) was added and the plates were incubated for 60 min at room temperature. The signal was captured by Envision.

hA1 = hA1 (Homo sapiens (Human), UniProt P30542); assay: FLIPR inhibition assay in hADORA1/CHO (hA1 expressing) cells; details: hADORA1/CHO cells, FLIPR calcium, adenosine stimulation; read-out: cAMP & FLIPR IC50 (nM) hA1
Sequence of hA1 (P30542 whole entry): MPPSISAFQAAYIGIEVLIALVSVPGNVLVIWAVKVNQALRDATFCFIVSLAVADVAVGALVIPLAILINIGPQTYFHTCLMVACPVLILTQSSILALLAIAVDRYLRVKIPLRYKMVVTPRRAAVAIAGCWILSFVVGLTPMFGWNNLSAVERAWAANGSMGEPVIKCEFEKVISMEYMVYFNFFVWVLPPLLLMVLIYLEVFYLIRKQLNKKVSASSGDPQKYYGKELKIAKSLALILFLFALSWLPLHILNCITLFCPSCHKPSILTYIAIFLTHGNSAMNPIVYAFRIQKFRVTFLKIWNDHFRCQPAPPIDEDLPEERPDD
Experimental: hADORA1/CHO (hA1 expressing) cells (Genscript) were plated at 1×10^4 cells/well into 384-well polystyrene plates one day before starting the experiment. On the day of experiment, the supernatant was discard and replaced with 40 µL of dye (FLIPR calcium 5 Assay Kit) per well and the plates were incubated for 60 mins at 37° C. plus 5% CO2. Then testing compounds were added at different concentrations for FLIPR™ inhibition assay. After a 400 s incubation with compound, […] adenosine was added into the cells, and the signal was captured by FLIPR.

mA2a = mA2a (Mus musculus (Mouse), UniProt Q60613); assay: cAMP inhibition assay in mA2a/CHO cells; details: adenosine stimulation, read-out: cAMP & FLIPR IC50 (nM) mA2a
Sequence of mA2a (Q60613 whole entry): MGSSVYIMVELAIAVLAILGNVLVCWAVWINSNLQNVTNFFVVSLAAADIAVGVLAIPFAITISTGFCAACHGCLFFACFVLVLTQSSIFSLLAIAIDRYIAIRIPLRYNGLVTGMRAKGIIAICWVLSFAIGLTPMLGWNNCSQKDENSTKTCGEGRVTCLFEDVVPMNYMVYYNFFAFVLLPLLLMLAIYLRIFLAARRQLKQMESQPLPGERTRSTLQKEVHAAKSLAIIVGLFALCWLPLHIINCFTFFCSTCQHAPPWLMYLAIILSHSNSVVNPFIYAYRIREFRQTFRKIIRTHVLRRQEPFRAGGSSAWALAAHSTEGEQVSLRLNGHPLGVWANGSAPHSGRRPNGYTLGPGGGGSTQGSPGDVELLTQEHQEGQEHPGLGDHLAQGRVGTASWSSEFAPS
Experimental: as §1

hA2a = hA2a (Homo sapiens (Human), UniProt P29274); assay: cAMP inhibition assay in hA2a/CHO cells; details: adenosine stimulation, read-out: cAMP & FLIPR IC50 (nM) hA2a
Sequence of hA2a (P29274 whole entry): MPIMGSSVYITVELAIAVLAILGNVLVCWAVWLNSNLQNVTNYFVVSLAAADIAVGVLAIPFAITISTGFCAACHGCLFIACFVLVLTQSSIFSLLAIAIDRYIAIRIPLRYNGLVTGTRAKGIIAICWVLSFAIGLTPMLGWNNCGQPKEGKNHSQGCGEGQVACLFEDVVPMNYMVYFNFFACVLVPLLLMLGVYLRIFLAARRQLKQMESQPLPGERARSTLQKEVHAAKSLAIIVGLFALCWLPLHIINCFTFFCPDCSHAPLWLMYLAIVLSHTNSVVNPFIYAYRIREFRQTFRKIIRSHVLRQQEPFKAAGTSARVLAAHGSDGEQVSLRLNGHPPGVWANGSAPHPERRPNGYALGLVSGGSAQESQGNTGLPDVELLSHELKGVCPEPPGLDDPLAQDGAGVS
Experimental: as §1
FLIPR™ and cAMP inhibition activities of exemplary compounds in different adenosine receptor over-expressing cell lines are shown in Table 4 below.

Sequence of hA2b (P29275 whole entry): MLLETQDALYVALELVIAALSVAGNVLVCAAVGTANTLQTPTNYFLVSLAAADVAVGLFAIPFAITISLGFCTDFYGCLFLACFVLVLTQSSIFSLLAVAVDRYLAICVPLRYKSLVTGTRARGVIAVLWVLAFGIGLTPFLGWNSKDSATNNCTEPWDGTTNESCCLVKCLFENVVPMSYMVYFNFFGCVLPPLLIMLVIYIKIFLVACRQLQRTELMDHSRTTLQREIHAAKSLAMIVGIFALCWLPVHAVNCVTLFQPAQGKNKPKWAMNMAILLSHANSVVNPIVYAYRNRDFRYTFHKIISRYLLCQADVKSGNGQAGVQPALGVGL

SMILES	IC50 (hA2b) [nM]	IC50 (hA1) [nM]	IC50 (mA2a) [nM]	IC50 (hA2a) [nM]
COCCc1nc2c(-c3ccc4ncc(C)n4c3)c(-c3ccc(F)cc3)nc(N)n2n1 [Example 114, 7-(4-fluorophenyl)-2-(2-methoxyethyl)-8-(3-methylimidazo[1,2-a]pyridin-6-yl)-[1,2,4]triazolo[1,5-c]pyrimidin-5-amine]	40.9	5.7	0.4	0.2
Cn1cc(-c2c(-c3ccc(F)cc3)nc(N)n3nc(Cc4nccs4)nc23)ccc1=O [Example 42, 5-[5-amino-7-(4-fluorophenyl)-2-[(1,3-thiazol-2-yl)methyl]-[1,2,4]triazolo[1,5-c]pyrimidin-8-yl]-1-methyl-1,2-dihydropyridin-2-one]	206	6.6	13	7.9
Cc1cnc2ccc(-c3c(N4CCCC4)nc(N)n4nc(Cc5ncccc5F)nc34)cn12 [Example 101, 2-((3*fluoropyridin-2-yl)methyl)-8-(3-methylimidazo[1,2-a]pyridin-6-yl)-7-(pyrrolidin-1-yl)-[1,2, 4]triazolo[l,5-c]pyrimidin-5-amine]	203	6.6	58.1	8.2
CNc1cc(-c2c(-c3ccc(F)cc3)nc(N)n3nc(Cc4ncccc4F)nc23)ccn1 [Example 43, 7-(4-fluorophenyl)-2-((3-fluoropyridin-2-yl)methyl)-8-(2-(methylamino)pyridin-4-yl)-[1,2,4]triazolo[1,5-c]pyrimidin-5-amine]	12	24	41	19
Cc1cc(-c2c(-c3ncco3)nc(N)n3nc(Cc4ncccc4F)nc23)cc(OC(F)F)n1 [Example 87]	5800	4050	90	27
Cc1cc(-c2c(-c3ncco3)nc(N)n3nc(Cc4c(F)cccc4F)nc23)cc(C)n1 [Example 33, 2-[(2,6-difluorophenyl)methyl]-8-(2,6-dimethylpyridin-4-yl)-7-(1,3-oxazol-2-yl)-[1,2,4]triazolo[1,5-c]pyrimidin-5-amine]	10000	6940	109	18
COC1CN(c2nc(N)n3nc(Cc4c(F)cccc4F)nc3c2-c2ccc3ncc(C)n3c2)C1 [Example 109, 2-(2,6-difluorobenzyl)-7-(3-methoxyazetidin-l-yl)-8-(3-methylimidazo[l,2-a]pyridin-6-yl)-[l,2,4] triazolo[1,5-c]pyrimidin-5-amine]	–	30.6	–	3.5
Cc1cnc2ccc(-c3c(-c4ncco4)nc(N)n4nc(CC5CCCO5)nc34)cn12 (single isomer, unassigned) [Example 106-1, 8-(3-methylimidazo[1,2-a]pyridin-6-yl)-7-(oxazol-2-yl)-2-((tetrahydrofuran-2-yl)methyl)-[1,2,4]triazolo[1,5-f]pyrimidin-5-amine]	–	53.2	–	0.5
Cc1cnc2ccc(-c3c(N4CCOC(C)C4)nc(N)n4nc(Cc5ncccc5F)nc34)cn12 (single isomer, unassigned; isomer 1) [Example 112-1, 2-((3-fluoropyridin-2-yl)methyl)-8-(3-methylimidazo[l,2-a]pyridin-6-yl)-7-(2-methylmorpholino)-[1,2,4]triazolo[1,5-c]pyrimidin-5-amine (isomer 1)]	–	966	–	91.6
CN1CCC[C@H]1Cc1nc2c(-c3ccc4ncn(C)c4c3)c(-c3ccc(F)cc3)nc(N)n2n1 [Example 103, (S)-7-(4-fluorophenyl)-8-(1-methyl-1H-benzo[d]imidazol-6-yl)-2-((1-methylpyrrolidin-2-yl)methyl)-[1,2,4]triazolo[1,5-c]pyrimidin-5-amine]	–	264	30.3	8.3
Cc1cnc2ccc(-c3c(N4CCC4)nc(N)n4nc(Cc5ncccc5F)nc34)cn12 [Example 119, 7-(azetidin-l-yl)-2-((3-fluoropyridin-2-yl)methyl)-8-(3-methylimidazo[1,2-a]pyridin-6-yl)-[1,2,4] triazolo[1,5-c]pyrimidin-5-amine]	–	48.6	–	1.9
Cc1cnc2ccc(-c3c(N4CCN(C)CC4)nc(N)n4nc(Cc5c(F)cccc5F)nc34)cn12 [Example 108, 2-(2,6-difluorobenzyl)-8-(3-methylimidazo[1,2-a]pyridin-6-yl)-7-{4-methylpiperazin-l-yl)-[1,2,4] triazolo[1,5-c]pyrimidin-5-amine]	–	131	–	42.3
Cc1cnc2ccc(-c3c(N4CCOC[C@@H]4C)nc(N)n4nc(Cc5ncccc5F)nc34)cn12 (single isomer, unassigned; isomer 1) [Example 113-1, 2-((3-fluoropyridin-2-yl)methyl)-8-(3-methylimidazo[l,2-a]pyridin-6-yl)-7-(3-methylmorpholino)-[1,2,4]triazolo[1,5-c]pyrimidin-5-amine (isomer 1)]	–	3270	–	42.4
Cc1cnc2ccc(-c3c(-c4ccc(F)cc4)nc(N)n4nc(CC5CCOC5)nc34)cn12 (single isomer, unassigned; isomer 2) [Example 105-2, 7-(4-fluorophenyl)-8-(3-methylimidazo[l,2-a]pyridin-6-yl)-2-((tetrahydrofuran-3-yl)methyl)-[1,2, 4]triazolo[1,5-c]pyrimidin-5-amine(isomer 2)]	71.6	11.8	–	–
Cc1cnc2ccc(-c3c(N4CCOCC4C)nc(N)n4nc(Cc5ncccc5F)nc34)cn12 (single isomer, unassigned; isomer 2) [Example 113-2, 2-((3-fluoropyridin-2-yl)methyl)-8-(3-methylimidazo[1,2-a]pyridin-6-yl)-7-(3-methylmorpholino)-[1,2,4]triazolo[1,5-c]pyrimidin-5-amine (isomer 2)]	–	> 10000	–	73
CN1CCC[C@@H]1Cc1nc2c(-c3ccc4ncn(C)c4c3)c(-c3ccc(F)cc3)nc(N)n2n1 [Example 104, (R)-7-(4-fluorophenyl)-8-(1-methyl-1H-benzo[d]imidazol-6-yl)-2-((1-methylpyrrolidin-2-yl)methyl)-[1,2,4]triazolo[1,5-c]pyrimidin-5-amine]	–	34.1	5.7	1
Cc1cnc2ccc(-c3c(N4CC5(COC5)C4)nc(N)n4nc(Cc5ncccc5F)nc34)cn12 [Example 118, 2-((3-fluoropyridin-2-yl)methyl)-8-(3-methylimidazo[l,2-a]pyridin-6-yl)-7-(2-oxa-6-azaspiro[3.3)heptan-6-yl)-[l,2,4]triazolo[l,5-c]pyrimidin-5-a mine]	–	> 8090	–	228
Cn1cc(-c2c(-c3ncco3)nc(N)n3nc(Cc4ncccc4OC(F)F)nc23)ccc1=O [Example 71, 5-(5-amino-2-[[3-(difluoromethoxy)pyridin-2-yl]methyl]-7-(1,3-oxazol-2-yl)-[1,2,4]triazolo[1,5-c]pyrimidin-8-yl)-1-methyl-1,2-dihydropyridin-2-one]	102	8.9	–	11
Cc1cnc2ccc(-c3c(-c4ncco4)nc(N)n4nc(CC5CCCO5)nc34)cn12 (single isomer, unassigned) [Example 106-2, 8-(3-methylimidazo[1,2-a]pyridin-6-yl)-7-(oxazol-2-yl)-2-((tetrahydrofuran-2-yl)methyl)-[1,2,4]triazolo[1,5-f]pyrimidin-5-amine]	–	34.9	–	0.2
COc1cc(-c2c(-c3ccc(F)cc3)nc(N)n3nc(Cc4c(F)cccc4F)nc23)ccn1 [Example 5, 2-(2,6-difluorobenzyl)-7-(4-fluorophenyl)-8-(2-methoxypyridin-4-yl)-[1,2,4]lriazolo[1,5-c] pyrimidin-5-amine]	–	–	1.5	1.9
Cc1cnc2ccc(-c3c(-c4ccc(F)cc4)nc(N)n4nc(C[C@H]5CCCN5C)nc34)cn12 [Example 125, (R)-7-(4-fluorophenyl)-8-(3-methylimidazo[l,2-a]pyrdin-6-yl)-2-((1-methylpyrrolidin-2-yl)methyl)-[l,2,4]triazolo[l,5-c]pyrimidin-5-amine]	–	34.1	–	0.4
Cc1cnc2ccc(-c3c(N4CCOC(C)C4)nc(N)n4nc(Cc5ncccc5F)nc34)cn12 (single isomer, unassigned; isomer 2) [Example 112-2, 2-((3-fluoropyridin-2-yl)methyl)-8-(3-methylimidazo[l,2-a]pyridin-6-yl)-7-(2-methylmorpholino)-[1,2,4]triazolo[1,5-c]pyrimidin-5-amine (isomer 2)]	–	120	–	3.2
COCCc1nc2c(-c3ccc4ncc(C)n4c3)c(-c3ncco3)nc(N)n2n1 [Example 126, 2-(2-methoxyethyl)-8-(3-methylimidazo[l,2-a]pyridin-6-yl)-7-(oxazol-2-yl)-[1,2,4]triazolo[1,5-c]pyrimidin-5-amine]	–	83.6	–	1.1
